Data from patent US20220056014A1, “PHENYLPYRROLIDINE COMPOUND AND USE THEREOF” (WUHAN HUMANWELL INNOVATIVE DRUG RESEARCH AND DEVELOPMENT …, priority 2018, published 2022).

What was measured:
PDE4D = molecular target: T1, PDE4D (Homo sapiens, UniProt Q08499); assay: PDE4D enzyme activity assay (PDE-Glo Phosphodiesterase Assay Kit); format: biochemical
T1 construct: purchased Enzo Life Sciences BML-SE523-0020
Description: (§1) For the previously synthesized compounds, the inhibitory activity of the compounds against PDE4B and against PDE4D was tested by using PDE-Glo Phosphodiesterase Assay Kit (promega, V1361). In short, in accordance with the instructions of the kit, a concentrated stock solution (10 mM) the compound to be tested was first prepared with DMSO solvent, and the concentrated stock solution was then diluted into 10× working solutions with a Reaction buffer provided in the kit. With the Reaction buffer, on ice, PDE4B enzyme (Enzo Life Sciences, BML-SE522-0020) was diluted to a concentration of 1 ng/μl to obtain a PDE4B enzyme working solution, and PDE4D enzyme (Enzo Life Sciences, BML-SE523-0020) was diluted to a concentration of 4 ng/μl to obtain a PDE4D enzyme working solution. 1.5 μl of the PDE4B working solution (or PDE4D working solution) and 1 μl of the compound working solution were added to wells of 384-well plate (Corning, CLS3707), and incubated with shaking at room temperature for 5 min, followed by adding 2.5 μl of cAMP (in Reaction buffer, 2 μM) per well, incubating with shaking at room temperature for 20 min. 2.5 μl/well of 1× Termination Buffer, and then 2.5 μl/well of 1× Detection Buffer were added, and further incubated with shaking at room temperature for 20 min. 10 μl/well of 1× Kinase-Glo was added, and the plate was incubated with shaking at room temperature for 10 min, and bioluminescence was measured with PheraStar instrument. The experimental results were plotted with GraphPad Prism software, and fitted to calculate IC50 of each compound.

PDE4B = molecular target: T2, PDE4B (Homo sapiens, UniProt Q07343); assay: PDE4B enzyme activity assay (PDE-Glo Phosphodiesterase Assay Kit); format: biochemical; conditions: for IC50 (PDE4D)/IC50 (PDE4B): selectivity ratio
T2 construct: purchased Enzo Life Sciences BML-SE522-0020
T2 sequence (Q07343 whole entry): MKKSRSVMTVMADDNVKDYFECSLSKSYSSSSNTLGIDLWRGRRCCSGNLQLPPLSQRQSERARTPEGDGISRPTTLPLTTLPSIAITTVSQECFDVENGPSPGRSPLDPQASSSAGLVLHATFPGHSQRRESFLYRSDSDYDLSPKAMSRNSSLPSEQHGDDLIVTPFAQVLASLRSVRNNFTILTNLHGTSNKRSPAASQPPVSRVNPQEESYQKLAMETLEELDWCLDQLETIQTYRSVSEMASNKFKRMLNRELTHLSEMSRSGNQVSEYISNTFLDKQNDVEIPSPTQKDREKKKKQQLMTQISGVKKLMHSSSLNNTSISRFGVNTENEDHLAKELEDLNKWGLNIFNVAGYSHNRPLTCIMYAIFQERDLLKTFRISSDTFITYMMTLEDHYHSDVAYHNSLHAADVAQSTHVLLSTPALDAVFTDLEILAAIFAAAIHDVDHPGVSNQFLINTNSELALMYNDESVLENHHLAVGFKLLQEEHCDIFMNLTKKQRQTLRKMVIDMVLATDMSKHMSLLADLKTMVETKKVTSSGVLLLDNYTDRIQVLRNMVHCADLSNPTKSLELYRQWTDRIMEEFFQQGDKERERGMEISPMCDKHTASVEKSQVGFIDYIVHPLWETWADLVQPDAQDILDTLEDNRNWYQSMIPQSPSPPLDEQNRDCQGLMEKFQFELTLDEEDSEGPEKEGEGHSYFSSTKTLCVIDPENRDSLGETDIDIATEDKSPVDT
Description: as §1

[1] = system: LPS-induced secretion of TNFα in human PBMCs; assay: LPS-induced secretion of TNFα in human PBMCs; format: cell-based; conditions: 24 h, LPS 10 ng/ml
Description: Extraction process of peripheral blood mononuclear cells (PBMCs): one unit of human peripheral blood concentrate (concentrated from 200 cc peripheral blood) was sucked and added with 0.9% saline until a total volume reached 120 ml, and mixed homogenously. 15 ml Lymphoprep™ was added into 50 ml centrifuge tube, and then 30 ml of diluted blood concentrate was carefully and slowly added thereto, allowing the diluted blood to be stacked on the layered solution and preventing the diluted blood from being mixed into the separated solutions or breaking the surface of the separated solution, wherein a ratio of Lymphoprep™ to the diluted blood was 1:2. The centrifuge tubes were balanced and placed in a horizontal centrifuge (eppendorf, 5810R), and centrifuged at 800 g and 20° C. for 20 min. The centrifuge tubes were carefully taken out. PBMCs were absorbed by directly inserting the Pasteur pipette deep into the buffy coat. The obtained PBMCs were gently pipetted with 3 times the volume of 0.9% normal saline or PBS (without calcium or magnesium ions) to mix homogenously. After that, the cells were centrifuged at 250 g and 20° C. for 10 min, the supernatant was removed to remove the platelets remaining in the cell suspension. The obtained cell pellet was resuspended in 20 ml of PBS, and counted using trypan blue.
Compound screening by using PBMCs: the PBMC suspension obtained above was centrifuged to remove PBS, then resuspended in complete medium (RPMI1640+10% FBS+1% P/S) and counted. 100 μL/well of the cells was seeded at 5×10^4/well. Each of the compounds to be screened was prepared as 4 times the final concentration, which was added to the cells at 50 μL/well. The compound was pre-incubated for 30 min in advance of being added to the cells. Meanwhile, control wells to which the compound was not added were provided. A final stimulation concentration of LPS was 10 ng/ml, and LPS was formulated as 4 times the final stimulation concentration, and added to the cells at 50 μL/well. Meanwhile, control wells, i.e., wells without LPS were provided. The cells were incubated for 24 h, and 10% of the supernatant was collected for detection. The obtained supernatant was detected using Invitrogen's Human TNF-α kit (REF: 88-7346-88).

T1 sequence (Q08499 whole entry): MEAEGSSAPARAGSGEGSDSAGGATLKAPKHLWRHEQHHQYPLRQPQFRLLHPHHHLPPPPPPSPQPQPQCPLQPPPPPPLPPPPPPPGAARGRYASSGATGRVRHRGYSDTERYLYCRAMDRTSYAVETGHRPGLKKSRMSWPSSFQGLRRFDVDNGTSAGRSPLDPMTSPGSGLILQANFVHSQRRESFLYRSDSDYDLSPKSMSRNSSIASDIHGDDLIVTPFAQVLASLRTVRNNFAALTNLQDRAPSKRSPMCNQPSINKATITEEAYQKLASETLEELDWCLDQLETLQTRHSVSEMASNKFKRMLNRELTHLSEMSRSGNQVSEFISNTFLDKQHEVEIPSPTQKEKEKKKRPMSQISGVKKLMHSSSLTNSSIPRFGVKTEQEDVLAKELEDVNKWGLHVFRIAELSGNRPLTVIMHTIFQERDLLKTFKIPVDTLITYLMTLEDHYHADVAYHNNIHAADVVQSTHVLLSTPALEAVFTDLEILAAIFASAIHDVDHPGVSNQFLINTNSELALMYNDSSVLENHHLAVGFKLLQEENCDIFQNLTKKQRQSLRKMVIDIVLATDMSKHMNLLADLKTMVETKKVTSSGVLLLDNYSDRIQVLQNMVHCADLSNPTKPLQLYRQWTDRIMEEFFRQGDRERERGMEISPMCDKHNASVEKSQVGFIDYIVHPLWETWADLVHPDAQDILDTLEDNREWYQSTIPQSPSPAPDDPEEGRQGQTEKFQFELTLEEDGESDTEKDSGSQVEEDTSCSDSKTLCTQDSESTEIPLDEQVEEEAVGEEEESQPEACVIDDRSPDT

| IC50 (PDE4B) [nM] | inhibition of PDE4B (in words) (PDE4B) | SMILES | IC50 ([1]; Homo sapiens, PBMC) [nM] | selective inhibitory activity against PDE4B versus PDE4D, compared with the positive control compound (in words) (PDE4B) | also measured |
| --- | --- | --- | --- | --- | --- |
| 0.41 |  | COc1ccc([C@@H]2CN(C(=O)[C@@H](O)CO)C[C@@]2(C)[C@@H](C)O)cc1OC1CN(c2ccc(C)c(C#N)n2)C1 [Compound 003, 6-(3-(5-((3S,4S)-1-((S)-2,3-dihydroxypropanoyl)-4-((R)-1-hydroxyethyl)-4-methylpyrrolidin-3-yl)-2-methoxyphenoxy)azetidin-1-yl)-3-methylpicolinonitrile] | 1.48 |  | IC50 (PDE4D): 0.39 nM; IC50 (PDE4D)/IC50 (PDE4B) (PDE4B): 0.95 |
|  | effectively inhibit PDE4B | COc1ccc([C@@H]2CN(C(=O)[C@@H](O)CO)C[C@@]2(C)[C@@H](C)O)cc1OC1CN(c2ncc(C)cc2Cl)C1 [Compound 005, (S)-1-((3S,4S)-4-(3-((1-(3-chloro-5-methylpyridin-2-yl)azetidin-3-yl)oxy)-4-methoxyphenyl)-3-((R)-1-hydroxyethyl)-3-methylpyrrolidin-1-yl)-2,3-dihydroxypropan-1-one] | 6.18 | significantly higher than that control compound |  |
|  | effectively inhibit PDE4B | COc1ccc([C@@H]2CN(C(=O)[C@@H](O)CO)C[C@@]2(C)[C@@H](C)O)cc1OC1CN(c2ccc(C#N)c(C)n2)C1 [Compound 013, 6-(3-(5-((3S,4S)-1-((S)-2,3-dihydroxypropanoyl)-4-((R)-1-hydroxyethyl)-4-methylpyrrolidin-3-yl)-2-methoxyphenoxy)azetidin-1-yl)-2-methylnicotinonitrile] |  | significantly higher than that control compound |  |
|  | effectively inhibit PDE4B | COc1ccc([C@@H]2CN(C(=O)[C@@H](O)CO)C[C@@]2(C)[C@@H](C)O)cc1OC1CN(c2ncc(C)cn2)C1 [Compound 016, (S)-2,3-dihydroxy-1-((3S,4S)-3-((R)-1-hydroxyethyl)-4-(4-methoxy-3-((1-(5-methylpyrimidin-2-yl)azetidin-3-yl)oxy)phenyl)-3-methylpyrrolidin-1-yl)propan-1-one] |  | significantly higher than that control compound |  |
|  | effectively inhibit PDE4B | CCc1cnc(N2CC(Oc3cc([C@@H]4CN(C(=O)[C@@H](O)CO)C[C@@]4(C)[C@@H](C)O)ccc3OC)C2)nc1 [Compound 017, (S)-1-((3S,4S)-4-(3-((1-(5-ethylpyrimidin-2-yl)azetidin-3-yl)oxy)-4-methoxyphenyl)-3-((R)-1-hydroxyethyl)-3-methylpyrrolidin-1-yl)-2,3-dihydroxypropan-1-one] |  | significantly higher than that control compound |  |
|  | effectively inhibit PDE4B | COc1ccc([C@@H]2CN(C(=O)[C@@H](O)CO)C[C@@]2(C)[C@@H](C)O)cc1OC1CN(c2ncc(Cl)cn2)C1 [Compound 018, (S)-1-((3S,4S)-4-(3-((1-(5-chloropyrimidin-2-yl)azetidin-3-yl)oxy)-4-methoxyphenyl)-3-((R)-1-hydroxyethyl)-3-methylpyrrolidin-1-yl)-2,3-dihydroxypropan-1-one] |  | significantly higher than that control compound |  |
| 1.87 |  | COc1ccc([C@@H]2CN(C(=O)[C@@H](O)CO)C[C@@]2(C)[C@@H](C)O)cc1OC1CN(c2cnc(C#N)cn2)C1 [Compound 019, 5-(3-(5-((3S,4S)-1-((S)-2,3-dihydroxypropanoyl)-4-((R)-1-hydroxyethyl)-4-methylpyrrolidin-3-yl)-2-methoxyphenoxy)azetidin-1-yl)pyrazine-2-carbonitrile] |  |  |  |
| 1.97 |  | COc1ccc(N2CC(Oc3cc([C@@H]4CN(C(=O)[C@@H](O)CO)C[C@@]4(C)[C@@H](C)O)ccc3OC)C2)cn1 [Compound 020, (S)-2,3-dihydroxy-1-((3S,4S)-3-((R)-1-hydroxyethyl)-4-(4-methoxy-3-((1-(6-methoxypyridin-3-yl)azetidin-3-yl)oxy)phenyl)-3-methylpyrrolidin-1-yl)propan-1-one] | 9.38 |  |  |
| 1.3 |  | COc1ccc([C@@H]2CN(C(=O)[C@@H](O)CO)C[C@@]2(C)[C@@H](C)O)cc1OC1CN(c2ncc(Cl)cc2C)C1 [Compound 023, (S)-1-((3S,4S)-4-(3-((1-(5-chloro-3-methylpyridin-2-yl)azetidin-3-yl)oxy)-4-methoxyphenyl)-3-((R)-1-hydroxyethyl)-3-methylpyrrolidin-1-yl)-2,3-dihydroxypropan-1-one] | 5.4 |  |  |
|  | effectively inhibit PDE4B | COc1ccc([C@@H]2CN(C(=O)[C@@H](O)CO)C[C@@]2(C)[C@@H](C)O)cc1OC1CN(c2ncc(Cl)cc2F)C1 [Compound 024, (S)-1-((3S,4S)-4-(3-((1-(5-chloro-3-fluoropyridin-2-yl)azetidin-3-yl)oxy)-4-methoxyphenyl)-3-((R)-1-hydroxyethyl)-3-methylpyrrolidin-1-yl)-2,3-dihydroxypropan-1-one] |  | significantly higher than that control compound | IC50 [1]: 6.56 nM |
| 2.76 |  | COc1ccc([C@@H]2CN(C(=O)[C@@H](O)CO)C[C@@]2(C)[C@@H](C)O)cc1OC1CN(c2ccc(F)c(C)n2)C1 [Compound 026, (S)-1-((3S,4S)-4-(3-((1-(5-fluoro-6-methylpyridin-2-yl)azetidin-3-yl)oxy)-4-methoxyphenyl)-3-((R)-1-hydroxyethyl)-3-methylpyrrolidin-1-yl)-2,3-dihydroxypropan-1-one] | 14.9 |  |  |
| 14.3 |  | CCc1nc(N2CC(Oc3cc([C@@H]4CN(C(=O)[C@@H](O)CO)C[C@@]4(C)[C@@H](C)O)ccc3OC)C2)ccc1C [Compound 027, (S)-1-((3S,4S)-4-(3-((1-(6-ethyl-5-methylpyridin-2-yl)azetidin-3-yl)oxy)-4-methoxyphenyl)-3-((R)-1-hydroxyethyl)-3-methylpyrrolidin-1-yl)-2,3-dihydroxypropan-1-one] |  |  | IC50 (PDE4D): 24.8 nM; IC50 (PDE4D)/IC50 (PDE4B) (PDE4B): 1.73 |
|  | effectively inhibit PDE4B | CCc1ccc(N2CC(Oc3cc([C@@H]4CN(C(=O)[C@@H](O)CO)C[C@@]4(C)[C@@H](C)O)ccc3OC)C2)nc1C [Compound 029, (S)-1-((3S,4S)-4-(3-((1-(5-ethyl-6-methylpyridin-2-yl)azetidin-3-yl)oxy)-4-methoxyphenyl)-3-((R)-1-hydroxyethyl)-3-methylpyrrolidin-1-yl)-2,3-dihydroxypropan-1-one] |  | significantly higher than that control compound |  |
|  | effectively inhibit PDE4B | CCc1cnc(N2CC(Oc3cc([C@@H]4CN(C(=O)[C@@H](O)CO)C[C@@]4(C)[C@@H](C)O)ccc3OC)C2)cc1C [Compound 030, (S)-1-((3S,4S)-4-(3-((1-(5-ethyl-4-methylpyridin-2-yl)azetidin-3-yl)oxy)-4-methoxyphenyl)-3-((R)-1-hydroxyethyl)-3-methylpyrrolidin-1-yl)-2,3-dihydroxypropan-1-one] |  | significantly higher than that control compound |  |
